From ChEMBL document CHEMBL1139004, “SAR and inhibitor complex structure determination of a novel class of potent and specific Aurora kinase inhibitors” (Bioorg Med Chem Lett, 2006)
Values after ≈ are worked out from the molar mass of the structure shown.

Experiments:
MCF7 = assay: Antiproliferative activity against MCF7 cell line; format: functional, cell-based; settings: Homo sapiens
[1] = Aqueous solubility of the compound
Aurora kinase A = molecular target: T1, Aurora kinase A (Homo sapiens, UniProt O14965); assay: Inhibitory activity against Aurora A
T1 sequence (O14965 whole entry): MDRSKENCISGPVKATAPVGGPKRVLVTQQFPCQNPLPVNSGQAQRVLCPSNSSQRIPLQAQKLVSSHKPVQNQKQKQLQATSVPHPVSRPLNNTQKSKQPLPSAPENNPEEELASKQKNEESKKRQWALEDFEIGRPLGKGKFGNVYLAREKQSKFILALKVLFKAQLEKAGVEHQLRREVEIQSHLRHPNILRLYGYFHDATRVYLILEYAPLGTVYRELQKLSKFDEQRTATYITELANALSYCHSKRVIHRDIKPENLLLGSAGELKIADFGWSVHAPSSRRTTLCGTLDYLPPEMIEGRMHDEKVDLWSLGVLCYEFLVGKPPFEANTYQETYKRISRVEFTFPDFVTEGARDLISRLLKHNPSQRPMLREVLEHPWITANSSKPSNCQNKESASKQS

[2] = Percent of unbound ligand in rat plasma; format: ADME, organism-based
[3] = Distribution coefficient of the compound, log D at pH 7.4; format: physicochemical; settings: octanol/water

Row | Structure (SMILES) | IC50 (MCF7) [nM] | solubility [1] [µM] | IC50 (Aurora kinase A) [nM] | fraction unbound [2] | logD [3]
1 | COc1cc2c(Nc3cnc(NC(=O)c4cccc(Cl)c4)nc3)ncnc2cc1OCCCN1CCCCC1 | 24 | 3600 (≈ 1970 µg/mL) | 0.8 |  | 
2 | CCCCC(=O)Nc1ncc(Nc2ncnc3cc(OCCCN4CCOCC4)c(OC)cc23)cn1 |  |  | 17 |  | 
3 | COc1cc2c(Nc3cnc(NC(=O)c4ccccc4)nc3)ncnc2cc1OC[C@@H](O)CN1CCCCC1 |  | 1500 (≈ 794 µg/mL) |  |  | 
4 | COc1cc2c(Nc3ncc(NC(=O)c4ccccc4)cn3)ncnc2cc1OCCCN1CCOCC1 |  |  | 629 |  | 
5 | COc1cc2c(Nc3ccc(NC(=O)c4ccccc4)cc3)ncnc2cc1OCCCN1CCOCC1 | 198 | 2.5 (≈ 1.28 µg/mL) |  | 0.003 | 
6 | COc1cc2ncnc(Nc3ccc(NC(=O)c4ccccc4)cc3)c2cc1OC [ANILINOQUINAZOLINE1] | 1250 |  | 393 |  | 3.7

More lines, now with the values ahead:

Row | IC50 (MCF7) [nM] | solubility [1] [µM] | IC50 (Aurora kinase A) [nM] | fraction unbound [2] | logD [3] | Structure (SMILES)
7 | 80 |  | < 0.1 |  |  | COc1cc2c(Nc3cnc(NC(=O)c4cccc(Cl)c4)nc3)ncnc2cc1OCCCN1CCOCC1
8 |  |  | 70 |  |  | COc1cc2c(Nc3cnc(NC(=O)c4ccc(C)c(Br)c4)nc3)ncnc2cc1OCCCN1CCOCC1
9 | 210 |  | 3 | 0.045 | 2.7 | COc1cc2c(Nc3cnc(NC(=O)c4ccccc4)nc3)ncnc2cc1OCCCN1CCOCC1
10 | 20 |  | 0.15 | 0.004 |  | COc1cc2c(Nc3cnc(NC(=O)c4ccc(F)c(Cl)c4)nc3)ncnc2cc1OCCCN1CCOCC1
11 |  |  | 3900 |  |  | CCCN(CCC)S(=O)(=O)c1ccc(C(=O)Nc2ncc(Nc3ncnc4cc(OCCCN5CCOCC5)c(OC)cc34)cn2)cc1
12 |  |  | 690 |  |  | COc1cc2c(Nc3cnc(NC(=O)c4ccncc4)nc3)ncnc2cc1OCCCN1CCOCC1
13 |  |  | 85 |  |  | CCc1ccc(C(=O)Nc2ncc(Nc3ncnc4cc(OCCCN5CCOCC5)c(OC)cc34)cn2)cc1
